Common to all, as to assay: DTP human tumour cell line panel, 48 h
Experiment [1] relates to U251 CNS.
In experiment [2] the test system is SW-620 colon.
Experiment [3] relates to HOP-92 NSCLC.
In experiment [4] the test system is MALME-3M melanoma.
Experiment [5] relates to UO-31 renal.
The test system of experiment [6] is SN12C renal.
In experiment [7] the test system is SR leukemia.
The test system of experiment [8] is UACC-62 melanoma.

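Step 1: Grow cells in 96-well plates. Step 2: Expose to compound for 48 hours at 5 concentrations. Step 3: Interpolate endpoints linearly; if unreached, use highest concentration. The concentration for 50% growth inhibition is given as GI50. TGI is the concentration that stops growth completely.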

As to `CCN(CC)CCOc1ccc(C(=C2CCCCC2)c2ccc(OCCN(CC)CC)cc2)cc1`, the TGI in experiment [1] turned out to be 3.1 µM; in experiment [2], 2.5 µM; in experiment [3] it was 3.94 µM; in experiment [4], 3.13 µM; in experiment [5], 2.96 µM; in experiment [6], 3.09 µM.

With `ClC[Si]12OCCN(CCO1)CCO2`, the TGI in experiment [1], in experiment [7], in experiment [2], in experiment [3], in experiment [4] and in experiment [5] was over 100 µM in each case. Further, the TGI in experiment [8] and in experiment [6] was over 100 µM in each case.

For `COc1ccc(C(=O)O)c(Cc2ccc3ccccc3c2)c1`, the TGI in experiment [1], in experiment [7], in experiment [2], in experiment [3], in experiment [4] and in experiment [5] was over 100 µM in each case. For the same compound, the concentration for total growth inhibition (TGI) in experiment [8] and in experiment [6] was over 100 µM in each case.

In the case of `Cc1cccc(NC(=O)CC#N)c1Cl`, the TGI in experiment [1], in experiment [7], in experiment [2], in experiment [3], in experiment [4] and in experiment [5] was over 100 µM throughout. The TGI in experiment [8] and in experiment [6] was over 100 µM in each case.

Turning to `COC(=O)NN1C(C)=C(C(=O)OC)C2(CCOC2=O)C1(C)O` (stereo not given), the TGI in experiment [1], in experiment [2], in experiment [3], in experiment [4], in experiment [5] and in experiment [8] was over 100 µM throughout. The compound further gave a TGI in experiment [6] of over 100 µM.

`CC1=C(c2cc(C(=O)Nc3nccs3)nc(NC#N)n2)Sc2ccccc2N1`: the TGI in experiment [1], in experiment [7], in experiment [2], in experiment [3], in experiment [4] and in experiment [5] was over 100 µM each time. In addition, the TGI in experiment [8] and in experiment [6] was over 100 µM throughout.

As to `c1ccc(C2N3CCCCC3[C@@H]3c4[nH]c5ccccc5c4CCN23)cc1` (stereo not given in full), the concentration for total growth inhibition (TGI) in experiment [1], in experiment [2], in experiment [3], in experiment [4], in experiment [5] and in experiment [8] was over 100 µM in each case. The concentration for total growth inhibition (TGI) in experiment [6] is over 100 µM.

As for `CC1(C)OC(=O)C(=C2CC(c3ccccc3)c3ccccc32)C(=O)O1` (stereo not given), the TGI in experiment [1], in experiment [7], in experiment [2], in experiment [3], in experiment [4] and in experiment [5] was over 100 µM in each case. The total growth inhibition concentration (TGI) in experiment [6] is over 100 µM.

On to `O=C([O-])c1ccccc1Nc1ccccc1[O-].[Ni+3].[OH3+].[OH3+].[OH3+]`, for which the GI50 in experiment [1] was over 100 µM; in experiment [7], over 100 µM; in experiment [2] it was over 100 µM; in experiment [3] it was 31.4 µM; in experiment [4] it was over 100 µM; in experiment [5] it was over 100 µM. Also, the GI50 in experiment [8] and in experiment [6] was over 100 µM in each case. In addition, the TGI in experiment [1], in experiment [7], in experiment [2], in experiment [3], in experiment [4] and in experiment [5] was over 100 µM each time. Also, the TGI in experiment [8] and in experiment [6] was over 100 µM in each case.

Consider `CN(C)/C(N)=N/C(N)=S`, for which the TGI in experiment [1], in experiment [7], in experiment [2], in experiment [3], in experiment [4] and in experiment [5] was over 100 µM each time. Also, the TGI in experiment [8] and in experiment [6] was over 100 µM throughout.

In the case of `COc1ccc(/C(C)=N/NC(N)=S)c(OC)c1`, the TGI in experiment [1], in experiment [7], in experiment [2], in experiment [3], in experiment [4] and in experiment [5] was over 100 µM throughout. Besides, the TGI in experiment [8] and in experiment [6] was over 100 µM throughout.

`CCC/C(=N\NC(=O)c1cc2ccccc2cc1O)C(CC)C(=O)CCC(=O)N(Cc1ccccc1)Cc1ccccc1` (stereo not given): the TGI in experiment [1], in experiment [7], in experiment [2], in experiment [3], in experiment [4] and in experiment [5] was over 100 µM in each case. For the same compound, the TGI in experiment [8] was 70 µM; in experiment [6], over 100 µM.

On to `BrC12c3ccccc3Sc3ccccc3C1(Br)c1ccccc12` (stereo not given), for which the TGI is 33.7 µM in experiment [1]; 41.4 µM in experiment [7]; over 100 µM in experiment [2]; 60.5 µM in experiment [3]; over 100 µM in experiment [4]; over 100 µM in experiment [5]. The TGI in experiment [8] worked out at 46.6 µM; in experiment [6] it was 76.6 µM.

Turning to `COc1ccc(C#CCC(OC2OC(CO)C(O)C(O)C2O)C(O)c2ccc(OC)c(OC)c2)cc1OC` (stereo not given), the TGI in experiment [1], in experiment [7], in experiment [2], in experiment [4], in experiment [5] and in experiment [8] was over 100 µM in each case. In experiment [6], the TGI was over 100 µM.

As to `CC(=O)OCC1OC(Sc2ccccn2)C=CC1OC(C)=O` (stereo not given), the TGI in experiment [1], in experiment [7], in experiment [2], in experiment [3], in experiment [4] and in experiment [5] was over 100 µM in each case. Also, the TGI in experiment [8] and in experiment [6] was over 100 µM in each case.

For `CC(C)CC(=O)NS(=O)(=O)c1ccccc1`, the total growth inhibition concentration (TGI) in experiment [1], in experiment [7], in experiment [2], in experiment [3], in experiment [4] and in experiment [5] was over 100 µM in each case. In addition, the TGI in experiment [8] and in experiment [6] was over 100 µM each time.

As for `CCSc1nc2n(c(=S)n1)CCN2C`, the TGI in experiment [1] was found to be 41.2 µM; in experiment [7], 29.9 µM; in experiment [2] it was 56.9 µM; in experiment [4], 36.2 µM; in experiment [5], 58.9 µM; in experiment [8], 25.8 µM. This compound showed a TGI in experiment [6] of 47.8 µM.

Consider `O=c1/c(=C/c2ccc3c(c2)OCO3)sc2nnc(-c3ccco3)n12`, for which the concentration for total growth inhibition (TGI) in experiment [1], in experiment [2], in experiment [4], in experiment [5], in experiment [8] and in experiment [6] was over 100 µM throughout.

Regarding `CN(C)/C=N/c1nc2ncn(CCOC(=O)c3ccccc3)c2c(=O)[nH]1`, the total growth inhibition concentration (TGI) in experiment [1], in experiment [7], in experiment [2], in experiment [3], in experiment [4] and in experiment [5] was over 100 µM throughout. Also, the total growth inhibition concentration (TGI) in experiment [8] and in experiment [6] was over 100 µM throughout.

With `O=C(c1ccc2c3c(ccc(C(=O)C(F)(F)F)c13)CC2)C(F)(F)F`, the TGI is over 100 µM in experiment [1]; over 100 µM in experiment [7]; over 100 µM in experiment [2]; 76.2 µM in experiment [3]; over 100 µM in experiment [4]; over 100 µM in experiment [5]. In addition, the TGI in experiment [8] and in experiment [6] was over 100 µM throughout.

Regarding `Oc1cc2c(cc1O)-c1[nH]ncc1CC2`, the TGI was 44.6 µM in experiment [1]; over 100 µM in experiment [7]; over 100 µM in experiment [2]; 66.4 µM in experiment [3]; over 100 µM in experiment [4]; 79.1 µM in experiment [5]. Besides, the TGI was 90.4 µM in experiment [8] and over 100 µM in experiment [6].

`CCC(/C(=N\Nc1c(Cl)cc(Cl)cc1Cl)c1ccccc1)n1ccnc1C` (stereo not given): the TGI in experiment [1] came to 28.4 µM; in experiment [2] it was 35.7 µM; in experiment [3], 19.7 µM; in experiment [4] it was 24.8 µM; in experiment [5], 20.1 µM; in experiment [8] it was 36.7 µM. The same compound showed a total growth inhibition concentration (TGI) in experiment [6] of 26.4 µM.

For `COC(=O)C(Cc1nc2ccccc2[nH]c1=O)C(=O)C(=O)Nc1ccc(OC)cc1[N+](=O)[O-]` (stereo not given), the concentration for total growth inhibition (TGI) in experiment [1], in experiment [7], in experiment [2], in experiment [3], in experiment [4] and in experiment [5] was over 100 µM throughout. The TGI in experiment [8] and in experiment [6] was over 100 µM each time.

As for `O=C(O)C1OC(Oc2cc(O)c3c(=O)cc(-c4ccc(O)cc4)oc3c2)C(O)C(O)C1O` (stereo not given), the TGI in experiment [1], in experiment [2], in experiment [4], in experiment [5] and in experiment [6] was over 100 µM throughout.

On to `CC1=C(C(=O)Nc2ccccc2C)C(c2ccc(C3C(C(=O)Nc4ccccc4C)=CNC=C3C(=O)Nc3ccccc3C)cc2)C(C(=O)Nc2ccccc2C)=C(C)N1`, for which the TGI in experiment [1] amounted to 24.7 µM; in experiment [7], 16.7 µM; in experiment [2], 32.6 µM; in experiment [3] it was 46.4 µM; in experiment [4], 38.9 µM; in experiment [5], 40 µM. For the same compound, the values for the TGI in experiment [8] and in experiment [6] were 31.9 µM and 21.9 µM, respectively.

As a reminder, the TGI is the concentration giving total growth inhibition. Higher therefore signals lower sensitivity of the cells. Broadly, the GI50 is the concentration giving 50% growth inhibition.

Values taken from PubChem BioAssay (NCI).
